Test results taken from patent US20030040510A1, “Selective estrogen receptor modulators in combination with estrogens” (Endorecherche, Inc., priority 2000, published 2003).
Like-named read-outs stand apart in the source and are kept apart here. Marks after values point to notes of the source that are not given here.

Key:
Solid state stability = format: physicochemical
Text: In administering either EM-800 or EM-1538, it is believed to result in the same active compound in vivo.

endometrial epithelium = assay: Thickness of uterine (endometrial) epithelial cells in the mice of Example 8; format: in vivo, nude mice; details: for Endometrial epithelium thickness: 161 days
Text: The 17 groups included two control groups (OVX and OVX+Estrone), seven groups supplemented with an estrone implant and treated with an antiestrogen and eight other groups that received an antiestrogen alone. The estrone implants were then removed from the animals in the ovariectomized control group (OVX) and in groups that were to receive the antiestrogen alone. […] Tamoxifen was purchased from […], Israel) while toremifene citrate was purchased from Orion (Espoo, Finland). […] Animals in both control groups received 0.2 ml of the vehicle alone. The antiestrogen suspensions at the appropriate concentration were prepared each month, stored at 4° C. and used under constant agitation. Powder stock were hermetically stored at 4° C. […] After 161 days of treatment, the remaining animals were anesthetized with isoflurane and killed by exsanguination. […] The uteri were prepared to evaluate endometrial thickness by image analysis performed with Image Pro-Plus (Media Cybernetics, Maryland, USA). […] Hematoxylin- and eosin-stained sections of mice uteri were analysed. […] Mean epithelial cell height was measured in all animals of each group.

[1] = test system: uterus and vagina of ovariectomized mice; assay: Uterine and vaginal weight in ovariectomized mice treated or not with estrone (9 days oral); format: in vivo, BALB/c mice; details: for Inhibition of estrone-stimulated uterine weight / Inhibition of estrone-stimulated vaginal weight: 9 days, OVX mice + E1
Protocol: (St-Constant, Quebec, Canada) and housed 5 per cage in a temperature (23±1° C.)—and light (12 h light/day, lights on at 7:15)—controlled environment. The mice were fed rodent chow and tap water ad libitum. […] Ten mice were kept intact as controls. […] Compounds were dissolved in ethanol (4% final concentration) and administered in 0.4% methylcellulose. Mice in the intact and OVX control groups received the vehicle alone (4% ETOH-0.4% methylcellulose) during the 9-day period. The animals were killed by exsanguination at the abdominal aorta on the 11th morning following ovariectomy.

[2] = test system: ovariectomized female rats; assay: Prevention of bone loss, body fat, serum cholesterol and ALP, 26-week treatment of OVX rats (Example 5A, experiment 2); format: in vivo, Sprague-Dawley rats; details: OVX rats, 26 weeks
Protocol: Ten to twelve week-old female Sprague-Dawley rats (Crl:CD(SD)Br) (Charles River Laboratory, St-Constant, Canada) weighing approximately 220-270 g at start of treatment were used. The animals were acclimatized to the environmental conditions (temperature: 22±3° C.; humidity: 50±20%; 12-h light-12-h dark cycles, lights on at 07:15 h) for at least 1 week before starting the experiments. The animals were housed individually and were allowed free access to tap water and a pelleted certified rodent feed (Lab Diet 5002, Ralston Purina, St-Louis, Mo.). Experiments were conducted in an animal facility approved by the Canadian Council on Animal Care (CCAC) and the Association for Assessment and Accreditation of Laboratory Animal Care (AAALAC) in accordance with the CCAC Guide for Care and Use of Experimental Animals.
On day 1 of the study, the animals of the appropriate groups were bilaterally OVX under isoflurane anesthesia. Tested compounds were administered as suspension in 0.4% methylcellulose by oral gavage. Treatments were initiated on day 2 of the study and were performed once daily during 26 weeks. In both experiments, animals not receiving a test article were treated with the appropriate vehicle alone during the same period.
After 3 months (experiment 1) or 26 weeks (experiment 2) of treatment, individual rats under Isoflurane anesthesia had their whole body skeleton and lumbar spine scanned using dual energy x-ray absorptiometry (DEXA; QDR 4500A, Hologic, Waltham, Mass.) and a Regional High Resolution Scan software. The bone mineral density (BMD) of the lumbar spine (vertebrae L2 to L4) and the total body composition (fat percentage) were determined.
After 3 months (experiment 1) or 26 weeks (experiment 2) of treatment, blood samples were collected at the jugular vein from overnight fasted animals (under Isoflurane anesthesia). Samples were processed for serum preparation and frozen at −80° C. until assay. Serum cholesterol levels and alkaline phospatase activity (ALP) were determined using the Boehringer Mannheim Diagnostic Hitachi 911 Analyzer (Boehringer Mannheim Diagnostic Laboratory Systems).

MCF-7 cells = assay: Proliferation of human breast cancer MCF-7 cells (DNA content); format: cell-based; details: for IC50: Homo sapiens, read-out: Inhibition of 1nM E2 stimulation of DNA by tested compounds IC50
Protocol: The MCF-7 human breast adenocarcinoma cell line was derived from the pleural effusion of a patient. MCF-7 cells were used between passages 148 and 165 and subcultured weekly
Cells in their late logarithmic growth phase were harvested with 0.1% pancreatin (Sigma) and resuspended in the appropriate medium containing 50 ng bovine insulin/ml and 5% (v/v) FBS treated twice with dextran-coated charcoal to remove endogenous steroids. Cells were plated in 24-well Falcon plastic culture plates (2 cm^2/well) at the indicated density and allowed to adhere to the surface of the plates for 72 h. Thereafter, medium was replaced with fresh medium containing the indicated concentrations of compounds diluted from 1000×stock solutions in 99% redistilled ethanol in the presence or absence of E2. Control cells received only the ethanolic vehicle (0.1% EtOH,v/v). Cells were incubated for the specified time intervals with medium changes at 2-or 3-day intervals. Cell number was determined by measurement of DNA content.
Dose-response curves as well IC50 values were calculated using a weighted iterative nonlinear least-squares regression. All results are expressed as means±SEM.

[3] = alone, absence of estrone, both doses used

CC1=C(c2ccc(O)cc2)[C@H](c2ccc(OCCN3CCCCC3)cc2)Oc2cc(O)ccc21.Cl [EM-652.HCl, (S)-(+)-7-hydroxy-3-(4′-hydroxyphenyl)-4-methyl-2-(4″-(2′″-piperidinoethoxy)phenyl)-2H-1-benzopyran hydrochloride]
Solid state stability (Solid state stability): good solid state stability | Inhibition of the stimulatory effect of estrone on epithelial height (endometrial epithelium; 50 μg daily oral + estrone): 70% | Height of uterine epithelial cells, of the OVX control group value (endometrial epithelium; 200 μg daily, absence of estrone): 114% | Endometrial epithelium thickness (endometrial epithelium; OVX + E1 + antiestrogen 50 μg daily): 25.06^b ± 0.07 μm | Endometrial epithelium thickness (endometrial epithelium; OVX + antiestrogen 200 μg daily, no estrone): 20.79 ± 0.10 μm | Inhibition of estrone-stimulated uterine weight ([1]; 1 μg daily oral): 24% | Inhibition of estrone-stimulated vaginal weight ([1]; 1 μg daily oral): 10% | Inhibition of estrone-stimulated uterine weight ([1]; 3 μg daily oral): 48% | Inhibition of estrone-stimulated vaginal weight ([1]; 3 μg daily oral): 25% | Inhibition of estrone-stimulated uterine weight ([1]; 10 μg daily oral): 72% | Inhibition of estrone-stimulated vaginal weight ([1]; 10 μg daily oral): 53% | Stimulatory effect on uterine weight [1, 3]: no significant stimulatory effect | Stimulatory effect on vaginal weight [1, 3]: no significant stimulatory effect | Serum ALP [2]: 78 ± 4 IU | Serum cholesterol [2]: 0.98 ± 0.06 mmol/L | IC50 (MCF-7 cells; MCF7, MCF-7, Experiment 2): 0.205 nM | IC50 (MCF-7 cells; MCF7, MCF-7, Experiment 1): 0.796 nM | Maximal stimulation of DNA by tested compounds (MCF-7 cells; MCF-7, Experiment 1): N.S. | Stimulation of DNA by tested compounds (MCF-7 cells; MCF-7, Experiment 2): N.S.
